Measured values reported in patent US8377884B2, “Variants of C-type natriuretic peptides” (Biomarin Pharmaceutical Inc., priority 2007, dated 2013).
Bridge positions count the residues as written; N and C are the ends. Peptide text beside a SMILES is read from it. * marks the point of attachment. MeO(CH2CH2O)23CH2CH2CO = COCCOCCOCCOCCOCCOCCOCCOCCOCCOCCOCCOCCOCCOCCOCCOCCOCCOCCOCCOCCOCCOCCOCCOCCC(=O)*

Assays:
[1] = molecular target: Recombinant human NEP (Homo sapiens, UniProt P08473); assay: In vitro neutral endopeptidase (NEP) cleavage assay; settings: NEP digestion for […] in vitro
Outline: (§1)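 Recombinant human NEP (1 ug/mL final) incubated with 100 uM CNP variant in 0.1 M Tris, pH 7, at 37° C for various times, then quenched with EDTA (10 mM final) and heat. Samples reduced and analysed by HPLC and mass spectrometry. Half-life derived from loss of intact variant over time.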

[2] = molecular target: neutral endopeptidase (NEP) (Homo sapiens, UniProt P08473); assay: as above; settings: human, pH 7
Outline: as §1

[3] = molecular target: T1, NPR-B (Mus musculus, UniProt Q6VVW5); assay: Stimulation of cGMP production in NIH3T3 cells; format: cell-based, Murine; settings: NIH3T3 cells, normalized to cell number and cGMP production with 1 uM wtCNP22; for cGMP response relative to 1 uM CNP22 (%) at 0.01 µM: 10 nM natriuretic peptide, read-out: cGMP Response rel. to 1 uM CNP22, 10 nM; for cGMP response relative to 1 uM CNP22 (%) at 1 µM: 1 uM natriuretic peptide, read-out: cGMP Response rel. to 1 uM CNP22, 1 uM
T1 construct: Murine NIH3T3 cells express endogenously the CNP signaling receptor, NPR-B; endogenous in cells; host or cells: NIH3T3 (murine fibroblasts)
T1 sequence (Q6VVW5 17-1047): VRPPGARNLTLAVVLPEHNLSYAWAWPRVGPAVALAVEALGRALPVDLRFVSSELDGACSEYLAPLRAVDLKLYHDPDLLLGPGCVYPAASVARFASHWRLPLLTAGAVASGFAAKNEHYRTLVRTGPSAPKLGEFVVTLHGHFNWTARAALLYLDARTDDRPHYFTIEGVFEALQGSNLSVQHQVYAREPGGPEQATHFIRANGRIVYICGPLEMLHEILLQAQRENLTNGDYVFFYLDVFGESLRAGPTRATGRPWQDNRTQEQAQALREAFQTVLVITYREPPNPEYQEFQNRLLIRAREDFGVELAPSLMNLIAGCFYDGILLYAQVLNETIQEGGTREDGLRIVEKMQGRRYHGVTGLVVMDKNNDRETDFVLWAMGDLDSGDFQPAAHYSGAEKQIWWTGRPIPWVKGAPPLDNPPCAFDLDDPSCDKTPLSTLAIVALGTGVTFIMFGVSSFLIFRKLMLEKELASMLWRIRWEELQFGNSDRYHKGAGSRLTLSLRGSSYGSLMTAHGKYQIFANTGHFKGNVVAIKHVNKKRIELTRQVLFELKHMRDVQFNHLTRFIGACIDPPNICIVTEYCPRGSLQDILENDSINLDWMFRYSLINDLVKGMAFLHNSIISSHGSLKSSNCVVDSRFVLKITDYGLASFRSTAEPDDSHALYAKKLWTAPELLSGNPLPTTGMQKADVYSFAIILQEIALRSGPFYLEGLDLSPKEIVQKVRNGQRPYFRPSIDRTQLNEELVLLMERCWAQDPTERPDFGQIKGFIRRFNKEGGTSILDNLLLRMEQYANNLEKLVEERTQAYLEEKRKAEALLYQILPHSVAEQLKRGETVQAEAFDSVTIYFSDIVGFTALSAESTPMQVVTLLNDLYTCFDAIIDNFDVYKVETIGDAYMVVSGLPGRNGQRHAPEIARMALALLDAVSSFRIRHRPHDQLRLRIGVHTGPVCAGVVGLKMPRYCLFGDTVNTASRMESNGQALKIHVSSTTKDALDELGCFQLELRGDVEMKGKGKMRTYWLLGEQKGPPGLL

[4] = Pharmacokinetics in normal rats after single i.v. or s.c. administration; settings: male, rat
Method: Studies were conducted in normal rats to evaluate the pharmacokinetics (PK) profile of CNP22 and certain CNP variants and the time courses of plasma cGMP concentration after single intravenous (i.v.) or subcutaneous (s.c.) administration of the CNP peptides. Plasma CNP immunoreactivity was determined by using a competitive radioimmunoassay (RIA) with an anti-CNP rabbit polyclonal antibody. Plasma cGMP concentration was determined by RIA using a commercially available kit (YAMASA cyclic GMP Assay kit, YAMASA Corporation).
Normal male rats, 7-8 weeks of age, were used. Recombinant wild-type CNP22, CNP37 and PEO24-CNP27(Arg4) (i.e., PEO24-GANRR-CNP22(K4R)) were evaluated. A dosage of 20 nmol/kg of each CNP peptide as a solution in 5% mannitol was intravenously injected once into the tail, or a dosage of 50 nmol/kg of each CNP peptide as a solution in 0.03 mol/L acetic acid buffer solution, pH 4.0, containing 1% (w/v) benzyl alcohol and 10% (w/v) sucrose, was subcutaneously injected once into the back.
Plasma CNP immunoreactivity was determined by the competitive RIA using anti-CNP rabbit polyclonal antibody. Standard and QC samples were prepared. Fifty uL of the standard, QC and assay samples were added, respectively, to test tubes containing 50 uL of RIA buffer. Diluted anti-CNP rabbit polyclonal antibody (100 uL) was added to the tubes. All tubes were kept at 4° C. overnight. ^125I-[Tyr^0]-CNP22 solution (100 uL) and rabbit IgG solution (100 uL) were added and left at approximately 4° C. overnight. One milliliter of anti-rabbit IgG goat serum containing 10% polyethylene glycol was added, vortexed and left at approximately 4° C. for at least 1 hour, and then the insoluble fraction was precipitated by centrifugation. After aspiration of the supernatant, the amount of radiation (gamma line) in the sediment was measured by a gamma-counter. Each sample was measured in duplicate, and the mean was adopted as the value determined.
Plasma CNP immunoreactivity was employed for pharmacokinetics (PK) analysis. PK analysis was performed using WINNONLIN® Professional (Pharsight Corporation). The PK profiles of CNP22, CNP37 and PEO24-CNP27(Arg4) after i.v. administration were calculated using PK parameters such as concentration at 0 hour (C0: extrapolation, pmol/mL), total body clearance (CLtot: mL/min/kg), distribution volume at steady state (Vdss: mL/kg), area under the plasma concentration-time curve (AUC: pmol·min/mL), mean residence time (MRT: min), and half-life (T1/2: min). The PK profiles of the CNP peptides after s.c. administration were calculated using PK parameters such as maximum plasma concentration (Cmax: pmol/mL), time to reach Cmax (Tmax: min), area under the plasma concentration-time curve (AUC: pmol·min/mL), mean residence time (MRT: min), and half-life (T1/2: min).

[5] = in vivo; settings: FVB/N, mouse, plasma, iv, 100 nmol/kg
Method: To determine CNP variants having increased NEP resistance, for efficacy study in FGFR3^ach mice (see Example 11), a pharmacokinetics (PK) study is carried out that compares the pharmacokinetics properties of CNP variants to wild-type CNP22. The FGFR3^ach mouse is a mutant mouse model of achondroplasia, containing a single transgene on a background of FVB mice.
Wild-type CNP22 or variant thereof is administered as a single intravenous (i.v.) dose in 6-week old wild-type FVB mice. Exemplary PK studies were conducted using wtCNP22. Six-week old FVB/N mice were intravenously administered wtCNP22 in a single dose at 100 nmol/kg.

[6] = molecular target: NPR-B (Homo sapiens, UniProt P20594); settings: read-out: affinity to NPR-B; cited from earlier work
[7] = molecular target: NPR-C (Homo sapiens, UniProt P17342); settings: read-out: affinity to NPR-C; cited from earlier work
Sequence of NPR-C (P17342 27-541, species assumed): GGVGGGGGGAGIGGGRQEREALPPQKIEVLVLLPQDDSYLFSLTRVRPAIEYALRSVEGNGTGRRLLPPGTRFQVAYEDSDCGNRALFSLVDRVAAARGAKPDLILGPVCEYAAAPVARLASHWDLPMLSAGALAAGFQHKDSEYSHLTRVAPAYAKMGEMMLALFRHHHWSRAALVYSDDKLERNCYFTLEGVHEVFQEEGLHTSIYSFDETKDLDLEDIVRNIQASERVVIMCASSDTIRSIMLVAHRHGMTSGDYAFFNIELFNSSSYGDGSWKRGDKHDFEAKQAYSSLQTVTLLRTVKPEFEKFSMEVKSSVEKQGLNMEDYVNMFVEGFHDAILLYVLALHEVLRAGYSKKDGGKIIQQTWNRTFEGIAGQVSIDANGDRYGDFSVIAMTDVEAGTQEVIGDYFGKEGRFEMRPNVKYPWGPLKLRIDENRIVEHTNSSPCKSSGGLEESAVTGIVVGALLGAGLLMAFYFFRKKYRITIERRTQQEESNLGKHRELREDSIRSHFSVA

Sequence of neutral endopeptidase (NEP) (P08473 whole entry): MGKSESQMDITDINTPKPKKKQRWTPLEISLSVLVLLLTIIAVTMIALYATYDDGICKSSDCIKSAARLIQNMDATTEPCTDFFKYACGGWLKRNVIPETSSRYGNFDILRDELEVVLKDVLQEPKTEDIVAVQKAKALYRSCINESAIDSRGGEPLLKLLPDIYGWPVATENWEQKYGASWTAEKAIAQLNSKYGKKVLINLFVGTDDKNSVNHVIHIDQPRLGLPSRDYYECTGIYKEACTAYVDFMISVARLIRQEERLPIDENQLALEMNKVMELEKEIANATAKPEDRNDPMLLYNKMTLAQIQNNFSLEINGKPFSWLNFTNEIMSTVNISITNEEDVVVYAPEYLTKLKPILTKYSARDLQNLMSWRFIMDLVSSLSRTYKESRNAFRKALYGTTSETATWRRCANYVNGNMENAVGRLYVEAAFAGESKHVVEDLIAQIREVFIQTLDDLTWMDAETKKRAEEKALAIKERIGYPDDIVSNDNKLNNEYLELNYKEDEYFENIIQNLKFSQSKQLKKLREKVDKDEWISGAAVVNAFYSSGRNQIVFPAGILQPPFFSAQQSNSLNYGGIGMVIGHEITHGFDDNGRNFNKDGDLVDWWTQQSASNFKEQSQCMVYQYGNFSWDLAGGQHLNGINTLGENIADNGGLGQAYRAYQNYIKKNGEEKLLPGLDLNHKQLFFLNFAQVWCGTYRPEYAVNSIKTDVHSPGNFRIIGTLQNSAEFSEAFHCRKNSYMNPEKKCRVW
Sequence of NPR-B (Homo sapiens, UniProt P20594) (P20594 23-1047, species assumed): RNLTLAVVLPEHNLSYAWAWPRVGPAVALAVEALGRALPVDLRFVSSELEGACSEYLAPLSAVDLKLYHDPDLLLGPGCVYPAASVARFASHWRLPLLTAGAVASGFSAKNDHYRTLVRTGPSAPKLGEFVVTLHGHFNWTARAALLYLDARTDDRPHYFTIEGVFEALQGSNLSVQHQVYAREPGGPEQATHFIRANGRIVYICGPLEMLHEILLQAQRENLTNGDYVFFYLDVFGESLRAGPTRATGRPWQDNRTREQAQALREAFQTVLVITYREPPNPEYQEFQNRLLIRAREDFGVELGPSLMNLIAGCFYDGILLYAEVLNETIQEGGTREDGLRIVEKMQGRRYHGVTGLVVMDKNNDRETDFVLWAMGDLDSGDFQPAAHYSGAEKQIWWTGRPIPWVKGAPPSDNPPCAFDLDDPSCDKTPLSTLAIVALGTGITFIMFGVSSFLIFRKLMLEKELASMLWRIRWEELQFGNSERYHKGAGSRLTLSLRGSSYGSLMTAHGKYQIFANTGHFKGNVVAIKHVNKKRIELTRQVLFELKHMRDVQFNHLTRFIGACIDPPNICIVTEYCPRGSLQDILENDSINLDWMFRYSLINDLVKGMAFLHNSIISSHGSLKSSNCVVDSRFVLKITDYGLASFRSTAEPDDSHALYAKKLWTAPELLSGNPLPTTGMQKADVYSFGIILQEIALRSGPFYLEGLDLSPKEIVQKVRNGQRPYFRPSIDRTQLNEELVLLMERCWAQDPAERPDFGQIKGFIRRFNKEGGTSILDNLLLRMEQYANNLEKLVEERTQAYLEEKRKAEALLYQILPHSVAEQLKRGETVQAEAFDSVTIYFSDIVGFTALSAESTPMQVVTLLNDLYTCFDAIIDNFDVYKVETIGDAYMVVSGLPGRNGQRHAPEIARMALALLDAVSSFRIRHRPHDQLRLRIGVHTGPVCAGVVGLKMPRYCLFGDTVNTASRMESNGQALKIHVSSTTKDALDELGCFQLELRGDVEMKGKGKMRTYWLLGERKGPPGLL
Sequence of Recombinant human NEP (P08473 whole entry): as the sequence (P08473 whole entry) above

For `CC[C@H](C)[C@@H]1NC(=O)[C@H](CCCNC(=N)N)NC(=O)[C@H](CC(=O)O)NC(=O)[C@H](CC(C)C)NC(=O)[C@H](CCCCN)NC(=O)[C@H](CC(C)C)NC(=O)CNC(=O)[C@H](Cc2ccccc2)NC(=O)[C@@H](NC(=O)CNC(=O)[C@H](CCCCN)NC(=O)[C@H](CO)NC(=O)[C@H](CC(C)C)NC(=O)CN)CSSC[C@@H](C(=O)O)NC(=O)CNC(=O)[C@H](CC(C)C)NC(=O)CNC(=O)[C@H](CO)NC(=O)[C@H](CCSC)NC(=O)[C@H](CO)NC(=O)CNC1=O` [CNP22, CNP-22], the “sites hydrolyzed on NEP digestion” value [1] was “all possible sites were unexpectedly hydrolyzed”, the half-life at 100 uM [2] was 80 min and the cGMP response relative to 1 uM CNP22 (%) at 0.01 µM [3] was 46 ± 10%. The cGMP response relative to 1 uM CNP22 (%) at 1 µM [3] was 100 ± 13%, the AUC ([4]; in vivo, iv, 20 nmol/kg) was 5.33 nM·h and the half-life ([4]; in vivo, iv, 20 nmol/kg) was 1.42 min. The bioavailability ([4]; in vivo, sc, 50 nmol/kg) was 19%, the half-life ([4]; in vivo, sc, 50 nmol/kg) was 10 min and the half-life [5] was 0.76 to 1.03 min. For the same compound, the Kd [6] was 0.007 to 0.03 nM and the Kd [7] was 0.011 to 0.14 nM.
In the case of `CC[C@H](C)[C@@H]1NC(=O)[C@H](CCCNC(=N)N)NC(=O)[C@H](CC(=O)O)NC(=O)[C@H](CC(C)C)NC(=O)[C@H](CCCCN)NC(=O)[C@H](CC(C)C)NC(=O)CNC(=O)[C@H](Cc2ccccc2)NC(=O)[C@@H](NC(=O)CNC(=O)[C@H](CCCNC(=N)N)NC(=O)[C@H](CO)NC(=O)[C@H](CC(C)C)NC(=O)CNC(=O)[C@H](CCCNC(=N)N)NC(=O)[C@H](CCCNC(=N)N)NC(=O)[C@H](CC(N)=O)NC(=O)[C@H](C)NC(=O)CNC(=O)CCOCCOCCOCCOCCOCCOCCOCCOCCOCCOCCOCCOCCOCCOCCOCCOCCOCCOCCOCCOCCOCCOCCOCCOC)CSSC[C@@H](C(=O)O)NC(=O)CNC(=O)[C@H](CC(C)C)NC(=O)CNC(=O)[C@H](CO)NC(=O)[C@H](CCSC)NC(=O)[C@H](CO)NC(=O)CNC1=O` [PEO24-GANRR-CNP22, K4R (CNP27)] ({MeO(CH2CH2O)23CH2CH2CO}-GANRRGLSRGCFGLKLDRIGSMSGLGC-OH; disulfide 11-27), the half-life at 100 uM [2] is reported as > 160 min, the cGMP response relative to 1 uM CNP22 (%) at 0.01 µM [3] is reported as 28 ± 9% and the cGMP response relative to 1 uM CNP22 (%) at 1 µM [3] is reported as 82 ± 18%. For the same compound, the half-life ([4]; iv, 20 nmol/kg) was 22.3 min, the bioavailability ([4]; sc, 50 nmol/kg) was 60% and the half-life ([4]; sc, 50 nmol/kg) was 78.1 min.
